Laboratory results reported in ChEMBL document CHEMBL5385948, “Glucose Uptake-Stimulating Metabolites from Aerial Parts of Centaurea sicula” (J Nat Prod, 2024).
Activity calls are given as the source filed them. No cut-off for these calls is given here.

Legend:
HEK293 [1] = experiment: Induction of glucose uptake in HEK293 cells assessed as increase in 2-NBDG uptake at 3 uM incubated for 48 hrs followed by treated with 2-DG in presence of EDTA by fluorescence assay; format: functional, cell-based; details: Homo sapiens
HEK293 [2] = experiment: Induction of glucose uptake in HEK293 cells assessed as increase in 2-NBDG uptake at 3 uM incubated for 48 hrs followed by treated with 2-DG by fluorescence assay; format: functional, cell-based; details: Homo sapiens

Row | SMILES | Activity (HEK293 [1]) | Activity (HEK293 [2])
1 | COc1cc([C@@H]2OC[C@H]3C(=O)OC[C@H]32)ccc1O | inactive | Active
2 | C=C(C(=O)O[C@H]1C/C(C)=C/CC/C(CO)=C/[C@H]2OC(=O)[C@@H](C)[C@H]12)[C@@H](O)CO | Active | Active
3 | CC1(C)C(=O)O[C@]2(C)C=C1C[C@H](O)C2 | Active | Active
4 | C/C1=C\CC/C(CO)=C/[C@@H](O)[C@H]2[C@H](C1)OC(=O)[C@H]2C | inactive | Active
